Active and inactive are the calls of the source. The calls are words filed in the database; no cut-off is given here.
How the values were obtained:
[1] = target: T1, P2X purinoceptor 3 (Rattus norvegicus) (UniProt P49654); assay: (§1) Antagonist activity against rat P2X3 receptor expressed in CHO-K1 cells assessed as effect on calcium level incubated for 20 mins by Fluo-3AM dye based FLIPR assay; assay type: functional, cell-based
T1 sequence (whole entry): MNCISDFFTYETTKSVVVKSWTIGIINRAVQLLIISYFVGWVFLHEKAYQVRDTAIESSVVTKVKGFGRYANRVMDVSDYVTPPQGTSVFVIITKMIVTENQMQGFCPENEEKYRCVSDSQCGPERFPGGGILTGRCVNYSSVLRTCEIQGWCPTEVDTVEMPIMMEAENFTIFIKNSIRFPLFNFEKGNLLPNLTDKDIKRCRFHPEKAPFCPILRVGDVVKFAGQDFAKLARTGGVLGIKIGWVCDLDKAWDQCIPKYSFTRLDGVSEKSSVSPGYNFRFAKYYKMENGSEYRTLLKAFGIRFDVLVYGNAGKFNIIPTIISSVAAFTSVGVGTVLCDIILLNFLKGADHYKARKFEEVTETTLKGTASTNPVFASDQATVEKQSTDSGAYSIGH

P2X purinoceptor 3 = target: T2, P2X purinoceptor 3 (Rattus norvegicus, UniProt P49654); assay: as §1; assay type: functional, cell-based
T2 sequence (P49654 whole entry): T1 sequence (whole entry)

Homo sapiens [2] = species: Homo sapiens; assay: Anti-tussive activity in idiopathic/treatment-resistant chronic cough patient assessed as cough severity visual analogue scales at 600 mg BID measured after 2 weeks during double-blind randomized placebo-controlled crossover trial; assay type: functional
Homo sapiens [3] = species: Homo sapiens; assay: Anti-tussive activity in patient with refractory chronic cough assessed as reduction in objective daytime cough counts at 600 mg BID measured after 2 weeks during double-blind randomized placebo-controlled crossover trial; assay type: functional
Homo sapiens [4] = species: Homo sapiens; assay: Anti-tussive activity in idiopathic/treatment-resistant chronic cough patient assessed as urge to cough analogue scales at 600 mg BID measured after 2 weeks during double-blind randomized placebo-controlled crossover trial; assay type: functional
Homo sapiens [5] = species: Homo sapiens; assay: Anti-tussive activity in idiopathic/treatment-resistant chronic cough patient assessed as reduction in daytime cough per hour at 600 mg BID measured after 2 weeks during double-blind randomized placebo-controlled crossover trial; assay type: functional
Homo sapiens [6] = species: Homo sapiens; assay: Anti-tussive activity in idiopathic/treatment-resistant chronic cough patient assessed as global ratings of change and cough quality of life questionnaire at 600 mg BID measured after 2 weeks during double-blind randomized placebo-controlled crossover trial; assay type: functional

Row | Compound | inhibition [1] | further results
1 | COc1cc(C(C)C)c(Oc2cnc(N)nc2N)cc1C(=O)N(C)C | Active | –
2 | CC(C)c1cc(OC(F)F)c(Cl)cc1Oc1cnc(N)nc1N | Active | –
3 | CCNC(=O)Nc1cc(Oc2cnc(N)nc2N)c(C(C)C)cc1OC | Active | –
4 | CCOc1cc(C(C)C)c(Oc2cnc(N)nc2N)cc1I | Active | –
5 | COc1cc(C(C)C)c(Oc2cnc(N)nc2N)cc1C(C)C | Active | –
6 | COc1cc(C(C)C)c(Oc2cnc(N)nc2N)cc1C(=O)O | Active | –
7 | CC(C)c1cc(O)c(I)cc1Cc1cnc(N)nc1N | Active | –
8 | COc1cc(C(C)C)c(Oc2cnc(N)nc2N)cc1C(F)(F)F | Active | –
9 | COc1cc(C(C)C)c(Oc2cnc(N)nc2N)cc1N | Active | –
10 | COc1cc(C(C)C)c(Oc2cnc(N)nc2N)cc1C(C)=O | Active | –
11 | CCS(=O)(=O)c1cc(Oc2cnc(N)nc2N)c(C(C)C)cc1OC | Active | –
12 | COc1cc(C(C)C)c(Oc2cnc(N)nc2N)cc1F | Active | –
13 | COc1cc(C(C)C)c(Oc2cnc(N)nc2N)cc1OC(F)(F)F | Active | –
14 | COc1cc(C(C)C)c(Oc2cnc(N)nc2N)cc1C#N | Active | –
15 | COc1cc(C(C)C)c(Oc2cnc(N)nc2N)cc1NC(C)=O | Active | –
16 | COc1cc(C(C)C)c(Oc2cnc(N)nc2N)cc1Br | Active | –
17 | CC(C)c1cc(O)c(I)cc1Oc1cnc(N)nc1N | – | IC50 (P2X purinoceptor 3): 5.01 nM
18 | COc1cc(C(C)C)c(Oc2cnc(N)nc2N)cc1Cl | Active | –
19 | COc1cc(C(C)C)c(Oc2cnc(N)nc2N)cc1NC(N)=O | Active | –
20 | CNC(=O)c1cc(Oc2cnc(N)nc2N)c(C(C)C)cc1OC | Active | –
21 | COc1cc(C(C)C)c(Oc2cnc(N)nc2N)cc1C(C)(C)O | Active | –
22 | COc1cc(C(C)C)c(Oc2cnc(N)nc2N)cc1C(C)OC (configuration not stated) | Active | –
23 | COc1cc(C(C)C)c(Oc2cnc(N)nc2N)cc1C(C)O (configuration not stated) | Active | –
24 | COc1cc(C(C)C)c(Oc2cnc(N)nc2N)cc1[N+](=O)[O-] | Active | –

Continued, in another order:

Row | inhibition [1] | Compound | further results
25 | Active | CC(C)c1cc(OCC(F)(F)F)c(I)cc1Oc1cnc(N)nc1N | –
26 | Active | CNS(=O)(=O)c1cc(Oc2cnc(N)nc2N)c(C(C)C)cc1OC | –
27 | Active | CCNS(=O)(=O)c1cc(Oc2cnc(N)nc2N)c(C(C)C)cc1OC | –
28 | Active | C#CCOc1cc(C(C)C)c(Oc2cnc(N)nc2N)cc1I | –
29 | Active | COc1cc(C(C)C)c(Oc2cnc(N)nc2N)cc1C(N)=O | –
30 | Active | C=Cc1cc(Oc2cnc(N)nc2N)c(C(C)C)cc1OC | –
31 | Active | COc1cc(C(C)C)c(Oc2cnc(N)nc2N)cc1C | –
32 | Active | COc1cc(C(C)C)c(Oc2cnc(N)nc2N)cc1I | –
33 | Active | CC(=O)c1cc(Oc2cnc(N)nc2N)c(C(C)C)cc1O | –
34 | Active | COc1cc(C(C)C)c(Oc2cnc(N)nc2N)cc1NC(=O)Nc1ccccc1 | –
35 | Active | COc1cc(C(C)C)c(Oc2cnc(N)nc2N)cc1S(N)(=O)=O [GEFAPIXANT] | Activity (Homo sapiens [2]): -26 mm; inhibition (INH) (Homo sapiens [3]): 75%; Activity (Homo sapiens [4]): -21 mm; inhibition (INH) (Homo sapiens [5]): 75%; Activity_index (Homo sapiens [6]): -9
36 | Active | COc1cc(Oc2cnc(N)nc2N)c(C(C)C)cc1OC | –
37 | Active | COc1cc(C(C)C)c(Oc2cnc(N)nc2N)cc1S(C)(=O)=O | –

— ChEMBL document CHEMBL3714764, “Diaminopyrimidine p2x3 and p2x2/3 receptor modulators for treatment of acute, sub-acute or chronic cough” (2015)
